Values joined by “and” are separate entries in the source; they are usually repeats but may differ in a detail not shown here. Identical values can stand only once. Like-named read-outs stand apart in the source and are kept apart here.
Experiments:
[1] = test system: human ovarian A2780 cancer cells; details: Peacock et al, J. Am. Chem. Soc. 2006; said to be erroneous; cited from earlier work
[2] = test system: human ovarian A2780 cancer cells; test: Cytotoxicity towards A2780 cells, sulforhodamine B (SRB) assay; format: cell-based
Experimental: (§1) Experimental: Cytotoxicity Towards A2780 and A549 Human Cancer Cells. After plating, human ovarian A2780 cancer cells were treated with Os^II complexes on day 3, and human lung A549 cancer cells on day 2, at concentrations ranging from 2 μM to 50 μM. Solutions of the Os^II complexes were made up in 0.125% DMSO to assist dissolution. Cells were exposed to the complexes for 24 h, washed, supplied with fresh medium, allowed to grow for three doubling times (72 h), and then the protein content measured (proportional to cell survival) using the sulforhodamine B (SRB) assay.
(§2) Cancer Cell Cytotoxicity. After plating, human ovarian A2780 cancer cells were treated with OsII complexes on day 3, and human lung A549 cancer cells on day 2, at concentrations ranging from 0.1 μM to 100 μM. Solutions of the OsII complexes were made up in 0.125% DMSO to assist dissolution. Cells were exposed to the complexes for 24 h, washed, supplied with fresh medium, allowed to grow for three doubling times (72 h), and then the protein content measured (proportional to cell survival) using the sulforhodamine B (SRB) assay.10

[3] = Stability in isotonic saline solutions; format: physicochemical; details: after 16 days of storage in the dark
Experimental: Stability tests on AFAP42, 64, 62, 05, 51 and 65 in isotonic saline solutions were also performed.

[4] = test system: human lung A549 cancer cells; test: Cytotoxicity towards A549 cells, sulforhodamine B (SRB) assay; format: cell-based
Experimental: as §1, §2

[5] = Stability against formation of hydroxo-bridged dimers; format: physicochemical; details: for Formation of inert hydroxo-bridged dimers: micromolar concentrations; for Stability with no evidence of dimer formation: 50 μM, even after incubation at 310 K (24 h)
Text: Complexes containing O,O-chelated ligands are deactivated at micromolar concentrations by loss of the chelate and formation of inert hydroxo-bridged dimers.

[6] = Acidity (pKa / pKa*) of coordinated water, 1H NMR pH* titration
Text: pKa* calculations. […] The chemical shifts of the arene ring protons were plotted against pH*. The pH* titration curves were fitted to the Henderson-Hasselbalch equation, with the assumption that the observed chemical shifts are weighted averages according to the populations of the protonated and deprotonated species.

[7] = Hydrolysis (aquation) kinetics followed by 1H NMR; format: physicochemical; details: for Hydrolysis k/h^−1 / Extent of hydrolysis at equilibrium (aqua adduct): 5% MeOD-d4/95% D2O, pH* 2
Experimental: Hydrolysis. […] The rate of hydrolysis was determined by fitting plots of concentrations (determined by ^1H NMR peak integrals) versus time to a pseudo first-order equation using ORIGIN version 5.0 (Microcal Software Ltd.).

[8] = Effect of chloride concentration on aqua adduct formation; format: physicochemical; details: for % aqua adduct: 1 mM complex in D2O, t = 10 min; for % of aqua complex formed: 1 mM complex
Text: The effects of chloride levels on the distribution of AFAP42 (“prodrug”) and its aqua analogue (“active species”) were investigated. […] Results are summarised in table 6, showing how the hydrolysis of AFAP42 is suppressed in solutions with chloride concentrations similar to those found in blood plasma. At chloride concentrations typical of the cells cytoplasm, complex AFAP42 hydrolyses to some extent and at chloride concentrations typical of the nucleus (where the proposed target, DNA, can be found), the complex is present predominantly as the “active species” the aqua complex.
The effects of chloride concentrations typical of blood plasma (100 mM), cell cytoplasm (22.7 mM) and cell nucleus (4 mM) on the aqueous chemistry of 3 and 6 were investigated. ^1H NMR spectra of 3 or 6 (1 mM) were recorded within 10 min of sample preparation and after incubation at 310 K for 24 h.

[9] = as above; format: physicochemical; details: for % aqua adduct: 1 mM complex in D2O, t = 26 h
9-ethyl adenine (9EtA) = test: Reaction with nucleobase model 9-ethyl adenine, 1H NMR; format: binding; details: for % 9EtA nucleobase adduct: 1 mM complex, 1 mol equivalent 9EtA, D2O; for binding to 9EtA (nucleobase adduct formation): time not given
Experimental: (§3) Since DNA is believed to be the main target for metal anticancer drugs, nucleobase binding reactions of compounds 3-6, with nucleobase models, 9-ethyl guanine (9EtG) and 9-ethyl adenine (9EtA), were investigated.
(§4) Solutions of 3-6 (1 mM) (present as an equilibrium between 3-6 and their respective aqua adducts as the major species) with 1 mol equivalent of 9EtG (Table 14) or 9EtA (Table 15) in D2O were prepared and ^1H NMR spectra were taken at different time intervals.
(§5) Interactions with Nucleobases. The reaction of compounds 8-12 with nucleobases typically involved addition of a solution containing 1 mol equiv of nucleobase in D2O, to an equilibrium solution of compounds 8-12 in D2O (>90% aqua). The pH* value of the sample was adjusted if necessary so as to remain close to 7.4 (physiological). ^1H NMR spectra of these solutions were recorded at 298 K after various time intervals.

9-ethyl guanine (9EtG) = test: Reaction with nucleobase model 9-ethyl guanine, 1H NMR; format: binding; details: for % 9EtG nucleobase adduct: 1 mM complex, 1 mol equivalent 9EtG, D2O; for binding to 9EtG (nucleobase adduct formation): time not given
Experimental: as §3, §4, §5

[10] = Table 7, 24 h exposure, 72 h growth, 2-50 μM, read-out: IC50/μM A2780
[11] = Table 7, 24 h exposure, 72 h growth, 2-50 μM, read-out: IC50/μM A549
[12] = Table 8, compounds 1-6, read-out: A2780 IC50
[13] = Table 8, compounds 1-6, read-out: A549 IC50

| Compound | IC50 [2, 10] | Stability of isotonic saline solutions [3] | IC50 [4, 11] [µM] | Formation of inert hydroxo-bridged dimers [5] | pKa of water coordinated on hydrolysis (aqua adduct of complex) [6] | IC50 [2, 12] [µM] | Hydrolysis k/h^−1 ([7]; 288 K) | Hydrolysis k/h^−1 ([7]; 298 K) | % 9EtA nucleobase adduct (9-ethyl adenine (9EtA); t = 10) [%] | % 9EtA nucleobase adduct (9-ethyl adenine (9EtA); t = 24 h) [%] | % 9EtA nucleobase adduct (9-ethyl adenine (9EtA); t = 72 h) [%] | % 9EtG nucleobase adduct (9-ethyl guanine (9EtG); t = 10) [%] | % 9EtG nucleobase adduct (9-ethyl guanine (9EtG); t = 24 h) [%] | % 9EtG nucleobase adduct (9-ethyl guanine (9EtG); t = 72 h) [%] | pKa* of the aqua adduct [6] | IC50 [4, 13] [µM] | other results |
| --- | --- | --- | --- | --- | --- | --- | --- | --- | --- | --- | --- | --- | --- | --- | --- | --- | --- |
| NCCN.[Cl][Os+].c1ccc(-c2ccccc2)cc1.c1ccc([B-](c2ccccc2)(c2ccccc2)c2ccccc2)cc1 [(III)] | – | – | – | – | – | – | – | – | – | – | – | – | – | – | – | – | Activity toward A2780 cells as previously reported [1]: inactive |
| F[P-](F)(F)(F)(F)F.NCCN.[Cl][Os+].c1ccc(-c2ccccc2)cc1 [AFAP05, [(η^6-bip)Os(en)Cl]PF6] | 7 µM | stable | 10 | – | – | – | – | – | – | – | – | – | – | – | – | – | – |
| Cc1ccc(C(C)C)cc1.NCC(=O)[O][Os][Cl] [AFAP43] | > 100 µM | – | > 100 | form in small amounts | 7.17 | – | – | – | – | – | – | – | – | – | – | – | – |
| CC(N)C(=O)[O][Os][Cl].Cc1ccc(C(C)C)cc1 [AFAP44] | > 100 µM | – | > 100 | form in small amounts | 7.05 | – | – | – | – | – | – | – | – | – | – | – | – |
| Cc1ccc(C(C)C)cc1.NCCC(=O)[O][Os][Cl] [AFAP49] | > 100 µM | – | > 100 | form in small amounts | 7.43 | – | – | – | – | – | – | – | – | – | – | – | – |
| CC(C)(N)C(=O)[O][Os][Cl].Cc1ccc(C(C)C)cc1 [AFAP60] | > 100 µM | – | > 100 | form in small amounts | 7.08 | – | – | – | – | – | – | – | – | – | – | – | – |
| Cc1cccc(C(=O)[O][Os][Cl])n1.c1ccc(-c2ccccc2)cc1 [Compound 3, [(η^6-bip)Os(6-Me-pico)Cl]] | – | – | – | – | – | > 50 | 0.219 ± 0.005 h⁻¹ | 0.676 ± 0.039 h⁻¹ | 0 | 9 | 9 | 0 | 30 | 30 | 6.34 | > 50 | % aqua adduct ([8]; 4 mM NaCl): 50%; % aqua adduct ([8]; 22.7 mM NaCl): 60%; % aqua adduct ([8]; 100 mM NaCl): 35%; % aqua adduct ([9]; 4 mM NaCl): 70%; % aqua adduct ([9]; 22.7 mM NaCl): 49%; % aqua adduct ([9]; 100 mM NaCl): 27%; binding to 9EtA (nucleobase adduct formation) (9-ethyl adenine (9EtA)): 9%; binding to 9EtG (nucleobase adduct formation) (9-ethyl guanine (9EtG)): 30% |
| O=C([O][Os][Cl])c1cc(Cl)ccn1.c1ccc(-c2ccccc2)cc1 [Compound 4, [(η^6-bip)Os(4-Cl-pico)Cl]] | – | – | – | – | – | 4.8 | 0.288 ± 0.001 h⁻¹ | 0.656 ± 0.032 h⁻¹ | 0 | 62 | 71 | 0 | 59 | 76 | 6.30 | 10 to 50 | Activity in A2780 cancer cell line [2]: toxic; Extent of hydrolysis at equilibrium (aqua adduct) [7]: 100% |
| O=C(O)c1ccnc(C(=O)[O][Os][Cl])c1.c1ccc(-c2ccccc2)cc1 [Compound 5, [(η^6-bip)Os(4-CO2H-pico)Cl]] | – | – | – | – | – | > 50 | 0.158 ± 0.011 h⁻¹ | 0.384 ± 0.004 h⁻¹ | 0 | 100 | 100 | 0 | 100 | 100 | 6.61 | > 50 | Extent of hydrolysis at equilibrium (aqua adduct) [7]: 100%; binding to 9EtA (nucleobase adduct formation) (9-ethyl adenine (9EtA)): 100%; binding to 9EtG (nucleobase adduct formation) (9-ethyl guanine (9EtG)): 100% |
| Cc1ccnc(C(=O)[O][Os][Cl])c1.c1ccc(-c2ccccc2)cc1 [Compound 6, [(η^6-bip)Os(4-Me-pico)Cl]] | – | – | – | – | – | 4.4 | 0.710 ± 0.012 h⁻¹ and 0.71 h⁻¹ | 2.32 ± 0.08 h⁻¹ and 2.32 h⁻¹ | 0 | 60 | 60 | 0 | 80 | 85 | 6.42 | 10 to 50 | Activity in A2780 cancer cell line [2]: toxic; Aquation k/h^−1 ([7]; 278 K): 0.17 h⁻¹; Aquation k/h^−1 ([7]; 285 K): 0.44 h⁻¹; Ea of aquation ([7]; from rates at 278-298 K): 21.65 kcal/mol; ΔH^‡ of aquation ([7]; from rates at 278-298 K): 21 kcal/mol; ΔS^‡ of aquation ([7]; from rates at 278-298 K): −55.56 J K^−1 mol^−1; % aqua adduct ([8]; 4 mM NaCl): 82%; % aqua adduct ([8]; 22.7 mM NaCl): 53%; % aqua adduct ([8]; 100 mM NaCl): 10%; % aqua adduct ([9]; 4 mM NaCl): 81%; % aqua adduct ([9]; 22.7 mM NaCl): 53%; % aqua adduct ([9]; 100 mM NaCl): 20% |
| [(η^6-bip)Os(pico)Cl] [AFAP64] | 4.2 µM | stable | 8 | – | 6.30 | – | – | – | – | – | – | – | – | – | – | – | – |
| [(η^6-p-cym)Os(pico)Cl] [AFAP42] | 4.5 µM | stable | 17 | – | 6.62 | – | – | – | – | – | – | – | – | – | – | – | % of aqua complex formed ([8]; 4 mM [Cl], T = 0): 56.1% Aqua; % of aqua complex formed ([8]; 4 mM [Cl], T = 24 h (310 K)): 65.5% Aqua; % of aqua complex formed ([8]; 22.7 mM [Cl], T = 0): 29.8% Aqua; % of aqua complex formed ([8]; 100 mM [Cl], T = 0): 12% Aqua; % of aqua complex formed ([8]; 100 mM [Cl], T = 24 h (310 K)): 12.9% Aqua; % of aqua complex formed ([9]; 4 mM [Cl], 50 μM complex, T = 0): 73.5% Aqua; % of aqua complex formed ([9]; 4 mM [Cl], 50 μM complex, T = 24 h (310 K)): 72.1% Aqua; % of aqua complex formed ([9]; 22.7 mM [Cl], 50 μM complex, T = 0): 44.8% Aqua; % of aqua complex formed ([9]; 22.7 mM [Cl], 50 μM complex, T = 24 h (310 K)): 45.2% Aqua; % of aqua complex formed ([9]; 22.7 mM [Cl], 1 mM complex, T = 24 h (310 K)): 30.5% Aqua; % of aqua complex formed ([9]; 100 mM [Cl], 50 μM complex, T = 0): 0% Aqua; % of aqua complex formed ([9]; 100 mM [Cl], 50 μM complex, T = 24 h (310 K)): 0% Aqua; Stability with no evidence of dimer formation [5]: 100% |
| [(η^6-p-cym)Os(quin)Cl] [AFAP62] | 15 µM and 15.2 µM | stable | 60 | – | 7.52 | – | – | – | – | – | – | – | – | – | – | – | Stability with no evidence of dimer formation [5]: 100% |
